Laboratory results: patent US20170121752A1, “DETECTION OF ACRYLIC ACID” (AGENCY FOR SCIENCE, TECHNOLOGY AND RESEARCH, priority 2014, published 2017)
“Also recorded” adds a separate entry of the source.

Tests used:
[1] = system: C. propionicum; assay: Fluorescence signal of bacterial cell lysates grown with 3-butynoic acid; type: cell-based, Clostridium propionicum; conditions: media with 5 and 10 mM 3-butynoic acid, lysates treated with compound 4
Method: The cell lysates were treated with […] of diaryltetrazole compound 4 for fluorescence detection. […] 3-Butynoic acid, an acyl CoA dehydrogenase inhibitor, may be capable of promoting accumulation of acrylyl CoA in cells. In C. propionicum, acrylyl CoA is normally converted to propionyl CoA. However, in the presence of 3-butynoic acid, this reaction is inhibited. […] C. propionicum naturally produces acrylic acid but E. Coli. may not naturally produce acrylic acid.

[2] = Fluorescence assay of the photoactivated reaction between diaryltetrazole and acrylic acid; conditions: for λem,max / λex,max: 100 μM compound reacted with acrylic acid; for λem,max / λex,max / Fold increase in fluorescence 10 mM / Fold increase in fluorescence 100 μM: photoirradiation 1 minute at 302 nm; for Fold increase in fluorescence 10 mM / Fold increase in fluorescence 100 μM: 100 μM compound; for Fold increase in fluorescence 10 mM: 10 mM acrylic acid; for fluorescence increases above the background: reacted with acrylic acid, summary of Table 1; for Fold increase in fluorescence 100 μM / pH of signal detection peak: 100 μM acrylic acid
Method: A solution containing the diaryltetrazole (0.022 mmol) and acrylic acid (0.02 to 0.050 mmol) was irradiated with a hand-held 302-nm UV lamp for 1 minute. Experiments were performed in a black 96-well plate with a total reaction volume of 100 The maximum excitation wavelengths indicated in Table 1 were used for each of the scans. The fluorescence emission spectrums of the reaction are shown in FIG. 1a to if using 10 μM of acrylic acid. The spectra for control experiments where either of the reactants was omitted have also been depicted in each of FIGS. 1a to 1f.
As mentioned earlier, the lower limit of detection of acrylic acid for compound 4 was 500 nM of acrylic acid upon a 1 minute photoactivation period with UV light at 302 nm. […]
As described above, compound 4 was used in further experiments to detect acrylic acid. The reaction between compound 4 and acrylic acid was carried out in water with a photoactivation time of 1 minute at 302 nm. Using 100 μM of 4, acrylic acid concentrations from 1 μM to 100 μM were readily detectable with a fluorescence microplate reader (see FIG. 3 and example 9).

[3] = system: E. coli cells; assay: In vivo detection of acrylic acid in E. coli cells by fluorescence microscopy; type: cell-based; conditions: 100 μM acrylic acid 10 minutes, 100 μM compound 4 30 min, UV 302 nm 1 minute
Method: The use of compound 4 as an acrylic acid sensor in vivo was tested in this example. E. coli cells were grown to late log phase (OD600˜1.0) and treated with 100 μM acrylic acid for 10 minutes at 37° C. Upon washing, cells were treated with 100 μM of compound 4 and incubated at 37° C. for 30 min in the dark. The cells were washed, pelleted, suspended in 1×PBS and mounted on a slide. They were then exposed to UV light at 302 nm for 1 minute and imaged under a fluorescence microscope (using DAPI filters) after about 2 hours of recovery at room temperature. Control cells include untreated cells; cells treated with either acrylic acid or compound 4 alone and without UV treatment.

[4] = system: C. propionicum cells; assay: In vivo detection of acrylic acid in C. propionicum cells by fluorescence microscopy and lysate fluorescence; type: cell-based, Clostridium propionicum; conditions: 100 μM compound 4, 30 min, UV 302 nm 1 minute, with or without 100 μM acrylic acid added
Method: To test the diaryltetrazole sensor for in vivo production of acrylic acid, we applied compound 4 to C. propionicum cells. C. propionicum cells were grown to late log phase (OD600˜1.0) in an anoxia chamber and treated with 100 μM of compound 4. After incubating at 37° C. for 30 min in the dark, cells were washed, pelleted, suspended in PBS buffer and mounted on a slide. Cells were exposed to 302 nm UV light for 1 minute and imaged under a fluorescence microscope (using DAPI filters) after about 2 hours of recovery at room temperature. Control cells include cells treated with acrylic acid and compound 4 to observe positive fluorescence; untreated cells and cells treated with acrylic acid alone and without UV treatment. […] This indicates the production of acrylic acid intermediates in these cells and the diaryltetrazole probe is capable of detecting them.

[5] = Fluorescence assay of the photoactivated reaction between diaryltetrazole and acrylamide
Method: To substantiate the above, the reaction between compound 4 and acrylic acid (AA), and the reaction between compound 4 and acrylamide (a derivative), were carried out in buffers from pH 1 to pH 13. […] Deprotonation of the chromophore appears to result in higher fluorescence intensity of the pyrazoline product.
100 μM acrylic acid and 2 different grades of acrylamides, particularly gel electrophoresis acrylamide (GE) and molecular biology acrylamide (MB), were tested with 100 μM of compound 4 over the entire pH range. The reaction between compound 4 and acrylic acid/acrylamide was carried out in a phosphate buffer (having different pH as indicated) in 10% DMSO with a photoactivation time of 1 minute at 302 nm. Fluorescence was measured using a fluorescence microplate reader. […] Clearly, the detection method of the present disclosure is capable of detecting acrylate derivatives.
Compound 4 was also used to detect acrylamide in vitro. The reaction between compound 4 and acrylamide was carried out in phosphate buffer at pH 9.0 with 10% DMSO with a photoactivation time of 1 minute at 302 nm. Using 100 μM of compound 4, acrylamide concentrations from 1 μM to 100 μM were readily detectable with a fluorescence microplate reader as shown in FIG. 18.
10% (v/v) of different oils in a phosphate buffer of pH 9.0 containing 1% Tween-20 were spiked in with 10 mM Acrylamide (gel electrophoresis grade). Controls were uncontaminated. Reactions of these mixtures were set up with 100 μM of compound 4 with a photoactivation time of 1 minute at 302 nm. Fluorescence was measured using a fluorescence microplate reader.
100 μM of acrylic acid and acrylamide (gel electrophoresis grade) were tested with 100 μM of compound 4 over a pH range of 7 to 13. The reaction between compound 4 and acrylic acid/acrylamide was carried out in a phosphate buffer (having different indicated pH) in 10% DMSO with a photoactivation time of 1 minute at 302 nm. Fluorescence was measured using a fluorescence microplate reader.

[6] = Reaction monitoring of photoactivated cycloaddition using HPLC and fluorescence
Method: 10 mM of compound 4 was dissolved in dichloromethane and methanol (1:1). A separate solution of 10 mM of acrylic acid was dissolved in methanol. 10 μL of 10 mM of compound 4 and 10 μL of 10 mM of acrylic acid were then dissolved in 80 μL of methanol. After vigorous stirring, the mixture was irradiated with a 302 nm UV lamp for 0 seconds, 15 seconds, 30 seconds, 45 seconds, 60 seconds, 90 seconds and 120 seconds, respectively. An aliquot (10 μL) of reaction solution from each sample was withdrawn and immediately injected in the HPLC column. Compound 4 (denoted as A) and the pyrazoline product 4P (denoted as B) in each sample was monitored by UV absorbance at 254 nm and 370 nm. A linear gradient of 5 to 90% MeOH was applied after 3 minutes for 10 minutes, which is then kept constant for 10 minutes before a 7 minutes linear declining gradient of 90 to 5% MeOH. Compound 4 and product 4P were eluted at about 13.4 minutes and 12.4 minutes respectively.
The kinetic reaction studies involving diaryltetrazole compound 4 and acrylic acid were carried out by monitoring with HPLC from 0 to 120 seconds as described above.
Fluorescence turn on of the reaction mixture occurred after 15 seconds. The left vial to the right vial are labelled as no UV activation, 15 seconds, 30 seconds, 45 seconds, 60 seconds, 90 seconds, 120 seconds of UV activation, respectively. […]

C#CCC(=O)O [3-butynoic acid, 3-Butynoic acid]
fluorescence signal of cell lysates [1]: fluorescence signal is higher

COC(=O)c1ccc(-c2nnn(-c3ccccc3)n2)cc1 [Compound 1]
λem,max [2]: 482 nm
λex,max [2]: 395 nm
Fold increase in fluorescence 10 mM [2]: 3.23
fluorescence increases above the background [2]: around 3 fold

COC(=O)c1ccc(-c2nnn(-c3ccc(F)cc3)n2)cc1 [Compound 2]
λem,max [2]: 487 nm
λex,max [2]: 392 nm
Fold increase in fluorescence 100 μM [2]: 1.12
Fold increase in fluorescence 10 mM [2]: 3.38
fluorescence increases above the background [2]: around 3 fold

Cc1ccc(-c2nnn(-c3ccc(N)cc3)n2)cc1 [Compound 5]
fluorescence / reactivity towards acrylic acid ([2]; reaction with acrylic acid, photoactivation): No fluorescence; also recorded: unreactive towards acrylic acid, forming little or no fluorescent product

COc1ccc(-n2nnc(-c3ccccc3)n2)cc1 [Compound 7]
λex,max [2]: 368 nm
Fold increase in fluorescence 100 μM [2]: 1.43
Fold increase in fluorescence 10 mM [2]: 3.38
fluorescence increases above the background [2]: around 3 fold

O=C(O)c1ccc(-c2nnn(-c3ccccc3)n2)cc1 [Compound 4]
fluorescence of bacterial cells [3]: only fluorescent in the presence of both acrylic acid and compound 4
fluorescence of cells [4]: cells were fluorescent
pH of signal detection peak ([2]; 100 μM compound 4, entire pH range, phosphate buffer 10% DMSO (FIG. 17)): 11.0 pH
pH of signal detection peak ([2]; 100 μM compound 4, pH range 7 to 13 (FIG. 21)): 10.0 pH
fluorescence detection of acrylic acid in LB media and minimum media ([2]; 100 μM compound 4, 1 min photoactivation): readily detected before the completion of photoactivation
λem,max [2]: 520 nm
λex,max [2]: 380 nm
Fold increase in fluorescence 100 μM [2]: 132
Fold increase in fluorescence 10 mM [2]: 5.15
lower limit of detection of acrylic acid ([2]; 1 minute photoactivation with UV light at 302 nm): 500 nM
Fold increase in fluorescence ([2]; Table 2: 100 μM compound 4, 500 nM acrylic acid): 1.12
Fold increase in fluorescence ([2]; Table 2: 100 μM compound 4, 1 μM acrylic acid): 1.58
Fold increase in fluorescence ([2]; Table 2: 100 μM compound 4, 10 μM acrylic acid): 17
Fold increase in fluorescence ([2]; Table 2: 100 μM compound 4, 100 μM acrylic acid): 132
fluorescence of the probe alone (control experiments) ([2]; buffers pH 1 to pH 13, without analyte): not fluorescent at all pH tested
pH of fluorescent peak ([5]; 100 μM acrylamide (gel electrophoresis grade), 100 μM compound 4, pH range 7 to 13 (FIG. 21)): 9.0 pH
pH of signal detection peak ([5]; 100 μM acrylamide, 100 μM compound 4, entire pH range, phosphate buffer 10% DMSO (FIG. 17)): 9.0 pH
detection of acrylamide in a complex organic/detergent mixture ([5]; 10% (v/v) oils, phosphate buffer pH 9.0, 1% Tween-20, 10 mM acrylamide, 100 μM compound 4): able to detect acrylamide in a complex organic/detergent mixture
time to completion of the reaction with acrylic acid ([6]; HPLC monitoring, 302 nm UV, methanol): ≤ 90 s
time to fluorescence turn on of the reaction mixture ([6]; compound 4 and acrylic acid in methanol, UV activation): ≤ 15 s

COC(=O)c1ccc(-c2nnn(-c3ccc(F)cc3F)n2)cc1 [Compound 3]
λem,max [2]: 482 nm
λex,max [2]: 380 nm
Fold increase in fluorescence 100 μM [2]: 1.12
Fold increase in fluorescence 10 mM [2]: 3.17
fluorescence increases above the background [2]: around 3 fold

COc1ccc(-n2nnc(-c3ccc(C)cc3)n2)cc1 [Compound 6]
λex,max [2]: 371 nm
Fold increase in fluorescence 10 mM [2]: 3.87
fluorescence increases above the background [2]: around 3 fold
